According to the kinase profiling compilation of Christmann-Franck et al. (2016):

Key:
Experiment in all cases: KINOMEscan competition binding
Details in all cases: compound 10.0 µM
CLK4 (human) = CLK4 (human) (UniProt Q9HAZ1)
LCK (human) = LCK (human) (UniProt P06239)
SIK2 (human) = SIK2 (human) (UniProt Q9H0K1)
MKNK1 (human) = MKNK1 (human) (UniProt Q9BUB5)
SRPK1 (human) = SRPK1 (human) (UniProt Q96SB4)
RPS6KA5 KD2 (human) = RPS6KA5 KD2 (human) (UniProt O75582)
FER (human) = FER (human) (UniProt P16591)
RPS6KA5 KD1 (human) = RPS6KA5 KD1 (human) (UniProt O75582)
CSK (human) = CSK (human) (UniProt P41240)
YSK4 (human) = YSK4 (human) (UniProt Q56UN5)
IKBKE (human) = IKBKE (human) (UniProt Q14164)
DMPK (human) = DMPK (human) (UniProt Q09013)
CDK17 (human) = CDK17 (human) (UniProt Q00537)
EIF2AK1 (human) = EIF2AK1 (human) (UniProt Q9BQI3)
CDK11B (human) = CDK11B (human) (UniProt P21127)
PRKCD (human) = PRKCD (human) (UniProt Q05655)
NTRK1 (human) = NTRK1 (human) (UniProt P04629)
CDK7 (human) = CDK7 (human) (UniProt P50613)
HIPK1 (human) = HIPK1 (human) (UniProt Q86Z02)
CDK9 (human) = CDK9 (human) (UniProt P50750)
PIK3CG (human) = PIK3CG (human) (UniProt P48736)
ERBB2 (human) = ERBB2 (human) (UniProt P04626)
STK39 (human) = STK39 (human) (UniProt Q9UEW8)
HIPK2 (human) = HIPK2 (human) (UniProt Q9H2X6)
ADCK4 (human) = ADCK4 (human) (UniProt Q96D53)
CPK1 (P.falciparum) = test system: CPK1 (P.falciparum)
CDK16 (human) = CDK16 (human) (UniProt Q00536)
EPHA7 (human) = EPHA7 (human) (UniProt Q15375)
[1] = test system: KIT (human), P10721 [L576P]
LRRK2 (human) = LRRK2 (human) (UniProt Q5S007)
STK17B (human) = STK17B (human) (UniProt O94768)
ERN1 (human) = ERN1 (human) (UniProt O75460)
BMPR1A (human) = BMPR1A (human) (UniProt P36894)
PIK3CD (human) = PIK3CD (human) (UniProt O00329)
CDC42BPB (human) = CDC42BPB (human) (UniProt Q9Y5S2)
PRKAA1 (human) = PRKAA1 (human) (UniProt Q13131)
MYO3A (human) = MYO3A (human) (UniProt Q8NEV4)
[2] = test system: EGFR (human), P00533 [752-759 del]
ABL2 (human) = ABL2 (human) (UniProt P42684)
STK10 (human) = STK10 (human) (UniProt O94804)
Chain of STK10 (human) (O94804 whole entry, looked up): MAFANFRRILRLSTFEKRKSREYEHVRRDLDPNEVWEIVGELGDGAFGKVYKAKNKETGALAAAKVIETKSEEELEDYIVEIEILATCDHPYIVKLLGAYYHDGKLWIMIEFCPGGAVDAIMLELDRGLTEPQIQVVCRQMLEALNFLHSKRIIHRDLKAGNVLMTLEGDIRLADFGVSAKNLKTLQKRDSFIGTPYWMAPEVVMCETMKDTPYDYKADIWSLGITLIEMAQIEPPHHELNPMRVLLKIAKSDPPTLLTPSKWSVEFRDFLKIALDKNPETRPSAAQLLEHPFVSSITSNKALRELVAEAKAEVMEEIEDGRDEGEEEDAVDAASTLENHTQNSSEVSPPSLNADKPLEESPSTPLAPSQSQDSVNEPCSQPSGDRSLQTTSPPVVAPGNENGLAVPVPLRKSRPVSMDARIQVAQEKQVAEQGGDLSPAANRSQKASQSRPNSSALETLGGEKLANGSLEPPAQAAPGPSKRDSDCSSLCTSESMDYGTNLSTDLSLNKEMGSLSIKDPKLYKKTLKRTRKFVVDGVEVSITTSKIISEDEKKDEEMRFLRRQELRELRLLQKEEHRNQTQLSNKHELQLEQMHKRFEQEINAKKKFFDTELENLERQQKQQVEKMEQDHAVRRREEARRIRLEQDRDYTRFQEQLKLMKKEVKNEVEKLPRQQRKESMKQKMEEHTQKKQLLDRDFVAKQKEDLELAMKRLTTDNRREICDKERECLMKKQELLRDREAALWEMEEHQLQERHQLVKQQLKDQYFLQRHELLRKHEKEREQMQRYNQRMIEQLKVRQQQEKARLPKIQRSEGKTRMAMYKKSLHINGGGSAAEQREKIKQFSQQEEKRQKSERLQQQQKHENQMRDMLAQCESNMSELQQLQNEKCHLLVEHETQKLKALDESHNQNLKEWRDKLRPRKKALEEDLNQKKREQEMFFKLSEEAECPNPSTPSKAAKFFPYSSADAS

Chain of KIT (human), P10721 [L576P] (P10721 whole entry L576P, looked up): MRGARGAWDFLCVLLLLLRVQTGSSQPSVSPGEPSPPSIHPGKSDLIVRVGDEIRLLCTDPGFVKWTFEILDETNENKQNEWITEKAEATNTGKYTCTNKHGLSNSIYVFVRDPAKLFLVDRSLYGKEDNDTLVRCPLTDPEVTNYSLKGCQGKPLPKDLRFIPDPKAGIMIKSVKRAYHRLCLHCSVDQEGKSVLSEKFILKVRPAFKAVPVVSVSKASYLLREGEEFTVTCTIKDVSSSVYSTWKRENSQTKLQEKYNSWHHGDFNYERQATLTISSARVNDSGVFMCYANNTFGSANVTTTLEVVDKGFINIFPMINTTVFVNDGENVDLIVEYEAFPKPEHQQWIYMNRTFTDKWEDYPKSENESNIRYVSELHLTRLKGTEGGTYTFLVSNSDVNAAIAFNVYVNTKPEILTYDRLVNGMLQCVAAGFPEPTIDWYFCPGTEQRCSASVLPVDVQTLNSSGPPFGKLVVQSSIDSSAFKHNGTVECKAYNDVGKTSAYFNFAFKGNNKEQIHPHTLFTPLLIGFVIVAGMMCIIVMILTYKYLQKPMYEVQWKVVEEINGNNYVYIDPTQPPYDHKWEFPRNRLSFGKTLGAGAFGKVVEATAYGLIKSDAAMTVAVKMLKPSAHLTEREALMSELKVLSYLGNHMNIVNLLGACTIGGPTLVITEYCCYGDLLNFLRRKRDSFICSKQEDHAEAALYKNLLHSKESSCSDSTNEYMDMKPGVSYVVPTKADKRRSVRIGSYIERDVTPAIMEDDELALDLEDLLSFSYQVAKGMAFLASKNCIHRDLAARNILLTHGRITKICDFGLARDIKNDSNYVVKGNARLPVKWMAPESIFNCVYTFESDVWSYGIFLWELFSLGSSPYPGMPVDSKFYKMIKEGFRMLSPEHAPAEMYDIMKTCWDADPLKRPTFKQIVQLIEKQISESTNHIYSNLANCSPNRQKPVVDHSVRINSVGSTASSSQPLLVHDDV
Chain of BMPR1A (human) (P36894 whole entry, looked up): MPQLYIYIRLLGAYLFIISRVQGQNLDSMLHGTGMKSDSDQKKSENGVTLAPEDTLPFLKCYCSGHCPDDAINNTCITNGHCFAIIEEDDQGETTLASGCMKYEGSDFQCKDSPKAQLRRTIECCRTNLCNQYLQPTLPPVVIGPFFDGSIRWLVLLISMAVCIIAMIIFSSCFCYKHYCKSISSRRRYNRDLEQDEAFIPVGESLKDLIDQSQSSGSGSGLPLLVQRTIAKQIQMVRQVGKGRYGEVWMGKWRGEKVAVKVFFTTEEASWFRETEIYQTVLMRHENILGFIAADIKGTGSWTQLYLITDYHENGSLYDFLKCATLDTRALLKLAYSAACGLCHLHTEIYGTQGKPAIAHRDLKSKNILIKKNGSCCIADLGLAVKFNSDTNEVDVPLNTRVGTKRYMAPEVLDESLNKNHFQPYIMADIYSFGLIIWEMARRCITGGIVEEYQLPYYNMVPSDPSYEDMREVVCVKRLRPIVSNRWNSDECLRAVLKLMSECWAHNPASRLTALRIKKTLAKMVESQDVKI
Chain of LRRK2 (human) (Q5S007 whole entry, looked up): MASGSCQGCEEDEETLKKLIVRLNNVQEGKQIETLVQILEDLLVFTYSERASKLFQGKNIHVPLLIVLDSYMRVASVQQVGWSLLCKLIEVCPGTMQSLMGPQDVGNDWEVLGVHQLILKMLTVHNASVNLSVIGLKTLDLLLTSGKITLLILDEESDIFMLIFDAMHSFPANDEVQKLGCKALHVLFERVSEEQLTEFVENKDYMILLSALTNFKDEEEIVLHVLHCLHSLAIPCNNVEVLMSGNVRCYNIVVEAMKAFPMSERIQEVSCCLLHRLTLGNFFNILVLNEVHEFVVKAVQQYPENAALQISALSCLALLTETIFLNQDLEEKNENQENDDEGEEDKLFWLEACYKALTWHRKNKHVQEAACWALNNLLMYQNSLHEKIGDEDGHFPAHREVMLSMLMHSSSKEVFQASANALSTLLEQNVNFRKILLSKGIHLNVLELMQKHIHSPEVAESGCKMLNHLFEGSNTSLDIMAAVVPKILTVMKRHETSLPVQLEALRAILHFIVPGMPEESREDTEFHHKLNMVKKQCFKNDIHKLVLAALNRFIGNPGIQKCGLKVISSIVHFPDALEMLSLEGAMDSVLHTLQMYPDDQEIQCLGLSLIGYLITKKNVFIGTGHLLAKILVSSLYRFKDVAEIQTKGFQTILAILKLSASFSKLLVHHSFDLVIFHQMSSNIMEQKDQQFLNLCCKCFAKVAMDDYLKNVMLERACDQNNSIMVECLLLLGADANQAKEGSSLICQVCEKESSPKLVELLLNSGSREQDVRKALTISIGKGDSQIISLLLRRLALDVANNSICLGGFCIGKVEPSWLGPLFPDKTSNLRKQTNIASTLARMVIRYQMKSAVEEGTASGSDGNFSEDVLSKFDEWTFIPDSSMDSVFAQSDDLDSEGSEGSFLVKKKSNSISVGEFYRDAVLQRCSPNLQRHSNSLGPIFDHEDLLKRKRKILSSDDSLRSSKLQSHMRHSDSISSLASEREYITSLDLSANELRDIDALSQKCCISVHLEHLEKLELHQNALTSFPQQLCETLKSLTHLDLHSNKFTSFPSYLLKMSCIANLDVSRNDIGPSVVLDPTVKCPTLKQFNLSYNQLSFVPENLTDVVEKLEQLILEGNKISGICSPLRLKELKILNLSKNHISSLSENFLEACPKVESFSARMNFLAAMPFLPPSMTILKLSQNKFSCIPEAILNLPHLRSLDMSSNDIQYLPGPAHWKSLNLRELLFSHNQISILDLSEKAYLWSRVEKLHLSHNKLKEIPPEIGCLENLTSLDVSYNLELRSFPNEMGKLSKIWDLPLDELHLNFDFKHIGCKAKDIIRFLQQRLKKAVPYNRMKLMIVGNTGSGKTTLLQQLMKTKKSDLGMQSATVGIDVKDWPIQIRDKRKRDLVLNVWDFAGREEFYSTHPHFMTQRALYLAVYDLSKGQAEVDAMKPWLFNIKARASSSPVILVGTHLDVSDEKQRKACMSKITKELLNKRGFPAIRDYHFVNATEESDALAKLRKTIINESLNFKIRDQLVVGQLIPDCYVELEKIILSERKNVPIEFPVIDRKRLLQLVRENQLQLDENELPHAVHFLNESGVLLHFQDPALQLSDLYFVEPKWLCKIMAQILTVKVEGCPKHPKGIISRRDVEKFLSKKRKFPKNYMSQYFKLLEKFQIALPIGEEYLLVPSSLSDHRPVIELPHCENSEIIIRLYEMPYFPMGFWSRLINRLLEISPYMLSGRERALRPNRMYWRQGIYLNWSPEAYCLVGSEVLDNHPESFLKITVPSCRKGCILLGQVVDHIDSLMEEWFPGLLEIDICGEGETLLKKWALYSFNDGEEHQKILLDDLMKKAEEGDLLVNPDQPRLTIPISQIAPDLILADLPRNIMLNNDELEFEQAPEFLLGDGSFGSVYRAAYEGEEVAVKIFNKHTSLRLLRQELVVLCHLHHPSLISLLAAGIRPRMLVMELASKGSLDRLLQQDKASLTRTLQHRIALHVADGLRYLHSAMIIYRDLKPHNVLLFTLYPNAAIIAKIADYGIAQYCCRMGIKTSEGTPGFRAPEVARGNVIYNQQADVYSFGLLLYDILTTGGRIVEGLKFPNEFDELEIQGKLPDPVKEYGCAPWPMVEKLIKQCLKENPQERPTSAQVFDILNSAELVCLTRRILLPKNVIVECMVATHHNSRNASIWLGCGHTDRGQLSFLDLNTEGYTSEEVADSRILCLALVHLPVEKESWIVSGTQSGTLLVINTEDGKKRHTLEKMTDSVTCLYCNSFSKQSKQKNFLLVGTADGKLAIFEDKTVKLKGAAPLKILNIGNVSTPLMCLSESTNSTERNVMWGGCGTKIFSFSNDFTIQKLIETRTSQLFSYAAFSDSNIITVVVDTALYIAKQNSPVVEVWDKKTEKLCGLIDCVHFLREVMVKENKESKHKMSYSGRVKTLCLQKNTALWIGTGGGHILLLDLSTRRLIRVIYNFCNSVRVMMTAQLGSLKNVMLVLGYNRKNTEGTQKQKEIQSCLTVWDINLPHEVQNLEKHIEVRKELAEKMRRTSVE

Compound	kinase still bound, per cent of control (CLK4 (human)) [%]	kinase still bound, per cent of control (LCK (human)) [%]	kinase still bound, per cent of control (SIK2 (human)) [%]	kinase still bound, per cent of control (MKNK1 (human)) [%]	kinase still bound, per cent of control (SRPK1 (human)) [%]	kinase still bound, per cent of control (RPS6KA5 KD2 (human)) [%]	kinase still bound, per cent of control (FER (human)) [%]	kinase still bound, per cent of control (RPS6KA5 KD1 (human)) [%]	kinase still bound, per cent of control (CSK (human)) [%]	kinase still bound, per cent of control (YSK4 (human)) [%]	kinase still bound, per cent of control (IKBKE (human)) [%]	kinase still bound, per cent of control (DMPK (human)) [%]	kinase still bound, per cent of control (CDK17 (human)) [%]	kinase still bound, per cent of control (EIF2AK1 (human)) [%]	kinase still bound, per cent of control (CDK11B (human)) [%]	kinase still bound, per cent of control (PRKCD (human)) [%]	kinase still bound, per cent of control (NTRK1 (human)) [%]	kinase still bound, per cent of control (CDK7 (human)) [%]	kinase still bound, per cent of control (HIPK1 (human)) [%]	kinase still bound, per cent of control (CDK9 (human)) [%]	other results
COc1cc2ncnc(-n3nc(-c4ccccn4)nc3N)c2cc1OC	2.2	5.2	61	51	83	33	93	84	43	0.45	9.6	100	59	51	93	76	48	5.4	0.55	76	kinase still bound, per cent of control (PIK3CG (human)): 3.1%; kinase still bound, per cent of control (ERBB2 (human)): 93%; kinase still bound, per cent of control (STK39 (human)): 80%; kinase still bound, per cent of control (HIPK2 (human)): 0.65%; kinase still bound, per cent of control (ADCK4 (human)): 14%; kinase still bound, per cent of control (CPK1 (P.falciparum)): 1.4%; kinase still bound, per cent of control (CDK16 (human)): 47%; kinase still bound, per cent of control (EPHA7 (human)): 18%; kinase still bound, per cent of control [1]: 4.5%; kinase still bound, per cent of control (LRRK2 (human)): 41%; kinase still bound, per cent of control (STK17B (human)): 9.4%; kinase still bound, per cent of control (ERN1 (human)): 46%; kinase still bound, per cent of control (BMPR1A (human)): 0.3%; kinase still bound, per cent of control (PIK3CD (human)): 5%; kinase still bound, per cent of control (CDC42BPB (human)): 100%; kinase still bound, per cent of control (PRKAA1 (human)): 19%; kinase still bound, per cent of control (MYO3A (human)): 72%; kinase still bound, per cent of control [2]: 58%; kinase still bound, per cent of control (ABL2 (human)): 33%; kinase still bound, per cent of control (STK10 (human)): 12%
CN(C)C/C=C/C(=O)Nc1ccc(C(=O)Nc2cccc(Nc3nccc(-c4cccnc4)n3)c2)cc1	2.2	100	90	42	26	98	100	100	97	0.1	76	64	92	100	91	100	60	3.2	6	90	kinase still bound, per cent of control (PIK3CG (human)): 13%; kinase still bound, per cent of control (ERBB2 (human)): 97%; kinase still bound, per cent of control (STK39 (human)): 58%; kinase still bound, per cent of control (HIPK2 (human)): 2.6%; kinase still bound, per cent of control (ADCK4 (human)): 98%; kinase still bound, per cent of control (CPK1 (P.falciparum)): 100%; kinase still bound, per cent of control (CDK16 (human)): 91%; kinase still bound, per cent of control (EPHA7 (human)): 100%; kinase still bound, per cent of control [1]: 0.35%; kinase still bound, per cent of control (LRRK2 (human)): 100%; kinase still bound, per cent of control (STK17B (human)): 19%; kinase still bound, per cent of control (ERN1 (human)): 70%; kinase still bound, per cent of control (BMPR1A (human)): 36%; kinase still bound, per cent of control (PIK3CD (human)): 91%; kinase still bound, per cent of control (CDC42BPB (human)): 100%; kinase still bound, per cent of control (PRKAA1 (human)): 100%; kinase still bound, per cent of control (MYO3A (human)): 73%; kinase still bound, per cent of control [2]: 88%; kinase still bound, per cent of control (ABL2 (human)): 100%; kinase still bound, per cent of control (STK10 (human)): 100%
C=CC(=O)Nc1cc(-n2c(=O)ccc3cnc4ccc(-c5cn[nH]c5)cc4c32)ccc1C	3	64	62	39	39	75	100	100	100	1.2	100	59	92	100	100	80	65	3.8	52	100	kinase still bound, per cent of control (PIK3CG (human)): 4.2%; kinase still bound, per cent of control (ERBB2 (human)): 42%; kinase still bound, per cent of control (STK39 (human)): 64%; kinase still bound, per cent of control (HIPK2 (human)): 48%; kinase still bound, per cent of control (ADCK4 (human)): 86%; kinase still bound, per cent of control (CPK1 (P.falciparum)): 11%; kinase still bound, per cent of control (CDK16 (human)): 97%; kinase still bound, per cent of control (EPHA7 (human)): 99%; kinase still bound, per cent of control [1]: 68%; kinase still bound, per cent of control (LRRK2 (human)): 38%; kinase still bound, per cent of control (STK17B (human)): 100%; kinase still bound, per cent of control (ERN1 (human)): 50%; kinase still bound, per cent of control (BMPR1A (human)): 12%; kinase still bound, per cent of control (PIK3CD (human)): 27%; kinase still bound, per cent of control (CDC42BPB (human)): 97%; kinase still bound, per cent of control (PRKAA1 (human)): 96%; kinase still bound, per cent of control (MYO3A (human)): 94%; kinase still bound, per cent of control [2]: 23%; kinase still bound, per cent of control (ABL2 (human)): 86%; kinase still bound, per cent of control (STK10 (human)): 94%
